These compounds were tested on MCH receptors (assay: MCH receptor activity class (method not given)). Conditions: class by percent of control at 10^-7 M or IC50.

Row | SMILES | class
1 | COc1cc(OC)c(CNC[C@H]2CC[C@@H](Nc3nccc(N(C)C)n3)CC2)cc1Br [compound 1265] | 1 (Class 1: The value of percent of control at 10^−7 M was less than 40% or the value of IC50 was less than 50 nM.)
2 | COc1ccc(Br)cc1CNC[C@H]1CC[C@@H](Nc2nccc(N(C)C)n2)CC1 [compound 1266] | 1 (Class 1: The value of percent of control at 10^−7 M was less than 40% or the value of IC50 was less than 50 nM.)
3 | CN(C)c1ccnc(N[C@H]2CC[C@@H](CNCc3ccc(O)cc3Cl)CC2)n1 [compound 1267] | 3 (Class 3 The value of percent of control at 10^−7 M was more than 60% or the value of IC50 was more than 200 nM.)
4 | CN(C)c1ccnc(N[C@H]2CC[C@@H](CNCc3ccccc3C#N)CC2)n1 [compound 1268] | 3 (Class 3 The value of percent of control at 10^−7 M was more than 60% or the value of IC50 was more than 200 nM.)
5 | CN(C)c1ccnc(N[C@H]2CC[C@@H](CNCc3cccc(Cl)c3)CC2)n1 [compound 1269] | 3 (Class 3 The value of percent of control at 10^−7 M was more than 60% or the value of IC50 was more than 200 nM.)
6 | CN(C)c1ccnc(N[C@H]2CC[C@@H](CNCc3ccc(Cl)cc3)CC2)n1 [compound 1270] | 3 (Class 3 The value of percent of control at 10^−7 M was more than 60% or the value of IC50 was more than 200 nM.)
7 | CCN(CC)c1ccc(CNC[C@H]2CC[C@@H](Nc3nccc(N(C)C)n3)CC2)cc1 [compound 1271] | 2 (Class 2: The value of percent of control at 10^−7 M was from 40% to 60% or the value of IC′50 was from 50 nM to 200 nM.)
8 | CN(C)c1ccc(CNC[C@H]2CC[C@@H](Nc3nccc(N(C)C)n3)CC2)cc1 [compound 1272] | 3 (Class 3 The value of percent of control at 10^−7 M was more than 60% or the value of IC50 was more than 200 nM.)
9 | CCn1c2ccccc2c2cc(CNC[C@H]3CC[C@@H](Nc4nccc(N(C)C)n4)CC3)ccc21 [compound 1273] | 1 (Class 1: The value of percent of control at 10^−7 M was less than 40% or the value of IC50 was less than 50 nM.)
10 | CN(C)c1ccnc(N[C@H]2CC[C@@H](CNCc3cc(C(F)(F)F)ccc3F)CC2)n1 [compound 1274] | 3 (Class 3 The value of percent of control at 10^−7 M was more than 60% or the value of IC50 was more than 200 nM.)
11 | CN(C)c1ccnc(N[C@H]2CC[C@@H](CNCc3ccc(O)cc3)CC2)n1 [compound 1275] | 3 (Class 3 The value of percent of control at 10^−7 M was more than 60% or the value of IC50 was more than 200 nM.)
12 | CN(C)c1ccnc(N[C@H]2CC[C@@H](CNCc3ccc(CO)o3)CC2)n1 [compound 1276] | 3 (Class 3 The value of percent of control at 10^−7 M was more than 60% or the value of IC50 was more than 200 nM.)
13 | CC(C)Oc1ccc(CNC[C@H]2CC[C@@H](Nc3nccc(N(C)C)n3)CC2)cc1 [compound 1277] | 2 (Class 2: The value of percent of control at 10^−7 M was from 40% to 60% or the value of IC′50 was from 50 nM to 200 nM.)
14 | CCc1ccc(CNC[C@H]2CC[C@@H](Nc3nccc(N(C)C)n3)CC2)s1 [compound 1278] | 3 (Class 3 The value of percent of control at 10^−7 M was more than 60% or the value of IC50 was more than 200 nM.)
15 | CN(C)c1ccnc(N[C@H]2CC[C@@H](CNCC=C(c3ccccc3)c3ccccc3)CC2)n1 [compound 1279] | 1 (Class 1: The value of percent of control at 10^−7 M was less than 40% or the value of IC50 was less than 50 nM.)
16 | CCOc1cc(CNC[C@H]2CC[C@@H](Nc3nccc(N(C)C)n3)CC2)ccc1O [compound 1280] | 2 (Class 2: The value of percent of control at 10^−7 M was from 40% to 60% or the value of IC′50 was from 50 nM to 200 nM.)
17 | CN(C)c1ccnc(N[C@H]2CC[C@@H](CNCc3ccc(N(C)C)c4ccccc34)CC2)n1 [compound 1281] | 2 (Class 2: The value of percent of control at 10^−7 M was from 40% to 60% or the value of IC′50 was from 50 nM to 200 nM.)
18 | COc1cc(OC)c(CNC[C@H]2CC[C@@H](Nc3nccc(N(C)C)n3)CC2)c(OC)c1 [compound 1282] | 1 (Class 1: The value of percent of control at 10^−7 M was less than 40% or the value of IC50 was less than 50 nM.)
19 | CN(C)c1ccnc(N[C@H]2CC[C@@H](CNCc3cc(Cl)cc(Br)c3O)CC2)n1 [compound 1283] | 3 (Class 3 The value of percent of control at 10^−7 M was more than 60% or the value of IC50 was more than 200 nM.)
20 | CN(C)c1ccnc(N[C@H]2CC[C@@H](CNCc3cccc(C#N)c3)CC2)n1 [compound 1284] | 3 (Class 3 The value of percent of control at 10^−7 M was more than 60% or the value of IC50 was more than 200 nM.)
21 | COc1ccc(F)c(CNC[C@H]2CC[C@@H](Nc3nccc(N(C)C)n3)CC2)c1 [compound 1285] | 3 (Class 3 The value of percent of control at 10^−7 M was more than 60% or the value of IC50 was more than 200 nM.)
22 | CN(C)c1ccnc(N[C@H]2CC[C@@H](CNCc3ccccc3SC(F)(F)F)CC2)n1 [compound 1286] | 3 (Class 3 The value of percent of control at 10^−7 M was more than 60% or the value of IC50 was more than 200 nM.)
23 | CCOc1ccc(Br)cc1CNC[C@H]1CC[C@@H](Nc2nccc(N(C)C)n2)CC1 [compound 1287] | 1 (Class 1: The value of percent of control at 10^−7 M was less than 40% or the value of IC50 was less than 50 nM.)

Row | SMILES | class
24 | COc1ccc(CNC[C@H]2CC[C@@H](Nc3nccc(N(C)C)n3)CC2)c(OC)c1C [compound 1288] | 1 (Class 1: The value of percent of control at 10^−7 M was less than 40% or the value of IC50 was less than 50 nM.)
25 | CN(C)c1ccnc(N[C@H]2CC[C@@H](CNCc3ccccc3OC(F)(F)F)CC2)n1 [compound 1289] | 3 (Class 3 The value of percent of control at 10^−7 M was more than 60% or the value of IC50 was more than 200 nM.)
26 | CCOc1ccc(OCC)c(CNC[C@H]2CC[C@@H](Nc3nccc(N(C)C)n3)CC2)c1 [compound 1290] | 1 (Class 1: The value of percent of control at 10^−7 M was less than 40% or the value of IC50 was less than 50 nM.)
27 | CCOc1ccc(CNC[C@H]2CC[C@@H](Nc3nccc(N(C)C)n3)CC2)c(OCC)c1 [compound 1291] | 2 (Class 2: The value of percent of control at 10^−7 M was from 40% to 60% or the value of IC′50 was from 50 nM to 200 nM.)
28 | COc1c(Br)cc(Br)cc1CNC[C@H]1CC[C@@H](Nc2nccc(N(C)C)n2)CC1 [compound 1292] | 1 (Class 1: The value of percent of control at 10^−7 M was less than 40% or the value of IC50 was less than 50 nM.)
29 | CN(C)c1ccnc(N[C@H]2CC[C@@H](CNCc3ccccc3OC(F)F)CC2)n1 [compound 1293] | 3 (Class 3 The value of percent of control at 10^−7 M was more than 60% or the value of IC50 was more than 200 nM.)
30 | COc1ccc(F)cc1CNC[C@H]1CC[C@@H](Nc2nccc(N(C)C)n2)CC1 [compound 1294] | 3 (Class 3 The value of percent of control at 10^−7 M was more than 60% or the value of IC50 was more than 200 nM.)
31 | CCOc1cc(OCC)c(OCC)cc1CNC[C@H]1CC[C@@H](Nc2nccc(N(C)C)n2)CC1 [compound 1295] | 1 (Class 1: The value of percent of control at 10^−7 M was less than 40% or the value of IC50 was less than 50 nM.)
32 | COc1cc(OC)c(OC)cc1CNC[C@H]1CC[C@@H](Nc2nccc(N(C)C)n2)CC1 [compound 1296] | 2 (Class 2: The value of percent of control at 10^−7 M was from 40% to 60% or the value of IC′50 was from 50 nM to 200 nM.)
33 | COc1cccc(CNC[C@H]2CC[C@@H](Nc3nccc(N(C)C)n3)CC2)c1OC [compound 1297] | 3 (Class 3 The value of percent of control at 10^−7 M was more than 60% or the value of IC50 was more than 200 nM.)
34 | C=CCOc1ccccc1CNC[C@H]1CC[C@@H](Nc2nccc(N(C)C)n2)CC1 [compound 1298] | 1 (Class 1: The value of percent of control at 10^−7 M was less than 40% or the value of IC50 was less than 50 nM.)
35 | CN(C)c1ccnc(N[C@H]2CC[C@@H](CNCc3csc4ccccc34)CC2)n1 [compound 1299] | 3 (Class 3 The value of percent of control at 10^−7 M was more than 60% or the value of IC50 was more than 200 nM.)
36 | CN(C)c1ccnc(N[C@H]2CC[C@@H](CNCc3cn(C)c4ccccc34)CC2)n1 [compound 1300] | 2 (Class 2: The value of percent of control at 10^−7 M was from 40% to 60% or the value of IC′50 was from 50 nM to 200 nM.)
37 | Cc1ccc(CNC[C@H]2CC[C@@H](Nc3nccc(N(C)C)n3)CC2)s1 [compound 1301] | 3 (Class 3 The value of percent of control at 10^−7 M was more than 60% or the value of IC50 was more than 200 nM.)
38 | Cc1cc(C)c(CNC[C@H]2CC[C@@H](Nc3nccc(N(C)C)n3)CC2)c(C)c1 [compound 1302] | 3 (Class 3 The value of percent of control at 10^−7 M was more than 60% or the value of IC50 was more than 200 nM.)
39 | CN(C)c1ccnc(N[C@H]2CC[C@@H](CNCc3ccc4c(c3)OCO4)CC2)n1 [compound 1303] | 3 (Class 3 The value of percent of control at 10^−7 M was more than 60% or the value of IC50 was more than 200 nM.)
40 | CN(C)c1ccnc(N[C@H]2CC[C@@H](CNCc3ccsc3)CC2)n1 [compound 1304] | 3 (Class 3 The value of percent of control at 10^−7 M was more than 60% or the value of IC50 was more than 200 nM.)
41 | Cc1cccc(CNC[C@H]2CC[C@@H](Nc3nccc(N(C)C)n3)CC2)c1 [compound 1305] | 3 (Class 3 The value of percent of control at 10^−7 M was more than 60% or the value of IC50 was more than 200 nM.)
42 | Cc1ccccc1CNC[C@H]1CC[C@@H](Nc2nccc(N(C)C)n2)CC1 [compound 1306] | 3 (Class 3 The value of percent of control at 10^−7 M was more than 60% or the value of IC50 was more than 200 nM.)
43 | Cc1ccc(CNC[C@H]2CC[C@@H](Nc3nccc(N(C)C)n3)CC2)cc1 [compound 1307] | 3 (Class 3 The value of percent of control at 10^−7 M was more than 60% or the value of IC50 was more than 200 nM.)
44 | CN(C)c1ccnc(N[C@H]2CC[C@@H](CNCc3cc(Cl)cc(Cl)c3)CC2)n1 [compound 1308] | 3 (Class 3 The value of percent of control at 10^−7 M was more than 60% or the value of IC50 was more than 200 nM.)
45 | COc1cc(CNC[C@H]2CC[C@@H](Nc3nccc(N(C)C)n3)CC2)cc2c1OCO2 [compound 1309] | 1 (Class 1: The value of percent of control at 10^−7 M was less than 40% or the value of IC50 was less than 50 nM.)

Source: patent publication US20050197350A1, “Novel quinoline, tetrahydroquinazoline, and pyrimidine derivatives and methods of treatment related to the use thereof” (TAISHO PHARMACEUTICAL CO., LTD., priority 2003, published 2005)
